ChEMBL document CHEMBL1136409, “Design of novel N-(2,4-dioxo-1,2,3,4-tetrahydro-thieno[3,2-d]pyrimidin-7-yl)-guanidines as thymidine phosphorylase inhibitors, and flexible docking to a homology model” (Bioorg Med Chem Lett, 2003)

These compounds were tested against T1, Thymidine phosphorylase (Homo sapiens, UniProt P19971) (assay: Binding affinity towards recombinant thymidine phosphorylase TP).
T1 sequence (P19971 whole entry): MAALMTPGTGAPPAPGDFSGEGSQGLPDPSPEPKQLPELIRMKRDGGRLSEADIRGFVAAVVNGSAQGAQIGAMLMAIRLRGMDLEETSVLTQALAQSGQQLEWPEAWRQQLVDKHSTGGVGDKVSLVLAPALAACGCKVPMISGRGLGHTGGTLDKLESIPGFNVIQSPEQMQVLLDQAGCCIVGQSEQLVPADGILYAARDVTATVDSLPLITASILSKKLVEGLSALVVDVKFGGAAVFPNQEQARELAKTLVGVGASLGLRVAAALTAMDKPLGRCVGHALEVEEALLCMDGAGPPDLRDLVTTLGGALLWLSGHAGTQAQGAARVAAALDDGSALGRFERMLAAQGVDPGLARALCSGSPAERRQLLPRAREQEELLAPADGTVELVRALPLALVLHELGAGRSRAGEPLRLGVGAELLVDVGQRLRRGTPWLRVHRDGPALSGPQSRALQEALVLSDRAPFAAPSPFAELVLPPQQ
`Nc1cc2[nH]c(=O)[nH]c(=O)c2s1` gave a Ki of over 300 µM.
For `N=C(N)Nc1cc2[nH]c(=O)[nH]c(=O)c2s1`, the Ki was over 2400 µM.
Compound `Nc1csc2c(=O)[nH]c(=O)[nH]c12` has a Ki of over 600 µM.
